According to patent US10538497B2, “Compounds as indoleamine 2,3-dioxygenase inhibitors” (Merck Sharp & Dohme Corp., priority 2015, dated 2020):

Experiments:
IDO1 [1] = biological target: T1, IDO1 (Homo sapiens (Human), UniProt P14902); test: IDO1 Cellular Assay in Hela Cells Stimulated with IFNγ; format: cell-based; settings: Hela cells stimulated with IFNγ 100 ng/mL; read-out: IDO1 HELA Cell Assay, IC50
IDO1 [2] = biological target: T1, IDO1; test: IDO1 Enzyme Assay; settings: HIS-tagged recombinant IDO1, 40 nM
IDO1 [3] = biological target: T1, IDO1; test: IDO1 Cellular Assay in Frozen HEK293 Cells Transiently Transfected with Human IDO1; format: cell-based; settings: HEK293 cells transiently transfected with human IDO1; read-out: IDO1 HEK293 Cell Assay, IC50
[4] = read-out: IDO1 Enzyme Assay, IC50

T1 sequence (P14902 whole entry): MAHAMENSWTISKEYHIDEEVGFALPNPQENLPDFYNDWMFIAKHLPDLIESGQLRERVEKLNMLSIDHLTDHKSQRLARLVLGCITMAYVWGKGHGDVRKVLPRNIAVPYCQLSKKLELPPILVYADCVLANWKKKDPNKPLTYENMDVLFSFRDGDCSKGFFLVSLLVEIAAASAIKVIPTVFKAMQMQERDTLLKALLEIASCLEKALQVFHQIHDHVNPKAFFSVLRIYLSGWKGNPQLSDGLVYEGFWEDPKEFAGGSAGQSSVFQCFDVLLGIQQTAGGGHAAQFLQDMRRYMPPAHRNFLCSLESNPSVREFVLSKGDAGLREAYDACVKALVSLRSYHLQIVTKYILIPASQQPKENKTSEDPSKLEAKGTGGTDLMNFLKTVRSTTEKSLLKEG

SMILES	IC50 (IDO1 [1]) [nM]	IC50 (IDO1 [2]; IDO1 Enzyme Assay, IC50, nM) [nM]	IC50 (IDO1 [3]) [nM]	IC50 (IDO1 [2]; [4]) [nM]
OCC(O)CSc1nonc1/C(=N/O)Nc1ccc(F)c(Br)c1 (single isomer, unassigned) [Example 63, N-(3-bromo-4-fluorophenyl)-4-[(2,3-dihydroxypropyl)sulfanyl]-N′-hydroxy-1,2,5-oxadiazole-3-carboximidamide]	37.5	46.1	53.2	
O=c1[nH]nc(CSc2nonc2/C(=N/O)Nc2ccc(F)c(Br)c2)cc1C(F)(F)F [Example 92, N-(3-bromo-4-fluorophenyl)-N′-hydroxy-4-({[6-oxo-5-(trifluoromethyl)-1,6-dihydropyridazin-3-yl]methyl}sulfanyl)-1,2,5-oxadiazole-3-carboximidamide]	145		364	99.5
O=c1c(NCCSc2nonc2/C(=N/O)Nc2ccc(F)c(Br)c2)c(N2CCCCC2)c1=O [Example 93, N-(3-bromo-4-fluorophenyl)-4-({2-[(3,4-dioxo-2-piperidin-1-ylcyclobut-1-en-1-yl)amino]ethyl}sulfanyl)-N′-hydroxy-1,2,5-oxadiazole-3-carboximidamide]	249		404	39
CC(CO)(CO)NC(=O)CSc1nonc1/C(=N/O)Nc1ccc(F)c(Br)c1 [Example 174, 2-({4-[N-(3-bromo-4-fluorophenyl)-N′-hydroxycarbamimidoyl]-1,2,5-oxadiazol-3-yl}sulfanyl)-N-[2-hydroxy-1-(hydroxymethyl)-1-methylethyl]acetamide]	63.6		113	82.7
CN1CCOC(CSc2nonc2/C(=N/O)Nc2ccc(F)c(Br)c2)C1 (stereo not drawn) [Example 78, N-(3-bromo-4-fluorophenyl)-N′-hydroxy-4-{[(4-methylmorpholin-2-yl)methyl]sulfanyl}-1,2,5-oxadiazole-3-carboximidamide]	57.7		101	90.9
CC(=O)NCCSc1nonc1/C(=N/O)Nc1ccc(F)c(C(F)F)c1 [Example 142, N-{2-[(4-{N-[3-(difluoromethyl)-4-fluorophenyl]-N′-hydroxycarbamimidoyl}-1,2,5-oxadiazol-3-yl)sulfanyl]ethyl}acetamide]	57.2		46.9	54
NS(=O)(=O)NCCSc1nsnc1/C(=N/O)Nc1ccc(F)c(Br)c1 [Example 47, N-(3-bromo-4-fluorophenyl)-N′-hydroxy-4-((2-(sulfamoylamino)ethyl)thio)-1,2,5-thiadiazole-3-carboximidamide]	245		290	439
N#CC1(CSc2nonc2/C(=N/O)Nc2ccc(F)c(Br)c2)CC1 [Example 68, N-(3-bromo-4-fluorophenvl)-4-{[(1-cyanocyclopropyl)methyl]sulfanyl}-N′-hydroxy-1,2,5-oxadiazole-3-carboximidamide]	77.2		107	96.2
O=c1[nH]nc(CSc2nonc2/C(=N/O)Nc2ccc(F)c(Br)c2)[nH]1 [Example 34, N-(3-bromo-4-fluorophenyl)-N′-hydroxy-4-(((5-oxo-4,5-dihydro-1H-1,2,4-triazol-3-yl)methyl)thio)-1,2,5-oxadiazole-3-carboximidamide]	40.2		188	64.9
CC(=O)NCCSc1nonc1/C(=N/O)Nc1ccc(F)c(C(F)(F)F)c1 [Example 49, N-{2-[(4-{N-[4-fluoro-3-(trifluoromethyl)phenyl]-N′-hydroxycarbamimidoyl}-1,2,5-oxadiazol-3-yl)sulfanyl]ethyl}acetamide]	11.9		31.7	65.3
ON=C(Nc1ccc(F)c(Br)c1)c1nonc1SCCN1CCNCC1 [Example 163, N-(3-bromo-4-fluorophenyl)-N′-hydroxy-4-[(2-piperazin-1-ylethyl)sulfanyl]-1,2,5-oxadiazole-3-carboximidamide]	405	161	181	
CN1C[C@H](CSc2nonc2/C(=N/O)Nc2ccc(F)c(Br)c2)NC1=O [Example 123, N-(3-bromo-4-fluorophenyl)-N′-hydroxy-4-({[(4R)-1-methyl-2-oxoimidazolidin-4-yl]methyl}sulfanyl)-1,2,5-oxadiazole-3-carboximidamide]	75.7		37.8	44.2
CN1C(=O)NC[C@@H]1CSc1nonc1/C(=N/O)Nc1ccc(F)c(Br)c1 [Example 43, (R)—N-(3-bromo-4-fluorophenyl)-N′-hydroxy-4-(((3-methyl-2-oxoimidazolidin-4-yl)methyl)thio)-1,2,5-oxadiazole-3-carboximidamide]	118		78.5	53.3
OCCCCSc1nonc1/C(=N/O)Nc1ccc(F)c(Br)c1 [Example 20, (Z)-N-(3-bromo-4-fluorophenyl)-N′-hydroxy-4-((4-hydroxybutyl)thio)-1,2,5-oxadiazole-3-carboximidamide]	65.3		56	67.7
O=c1c(NCCSc2nonc2/C(=N/O)Nc2ccc(F)c(Br)c2)c(N2CCOCC2)c1=O [Example 91, N-(3-bromo-4-fluorophenyl)-N′-hydroxy-4-({2-[(2-morpholin-4-yl-3,4-dioxocyclobut-1-en-1-yl)amino]ethyl}sulfanyl)-1,2,5-oxadiazole-3-carboximidamide]	357		367	57.4
O=C(CSc1nonc1C(=NO)Nc1ccc(F)c(Br)c1)NCCO [Example 112, 2-({4-[N-(3-bromo-4-fluorophenyl)-N′-hydroxycarbamimidoyl]-1,2,5-oxadiazol-3-yl}sulfanyl)-N-(2-hydroxyethyl)acetamide]	40.8	54.2	40	
O=C(NCCSc1nonc1/C(=N/O)Nc1ccc(F)c(Br)c1)C(F)(F)F [Example 79, N-[2-({4-[N-(3-bromo-4-fluorophenyl)-N′-hydroxycarbamimidoyl]-1,2,5-oxadiazol-3-yl}sulfanyl)ethyl]-2,2,2-trifluoroacetamide]	24.1		27.5	61.6
CN1CCN(CCSc2nonc2C(=NO)Nc2ccc(F)c(Br)c2)CC1 [Example 164, N-(3-bromo-4-fluorophenyl)-N′-hydroxy-4-{[2-(4-methvlpiperazin-1-yl)ethyl]sulfanyl}-1,2,5-oxadiazole-3-carboximidamide]	246		91.5	62.2
CC(=O)NCCSc1nonc1/C(=N/O)Nc1cc(Br)c(F)cc1F [Example 58, N-[2-({4-[N-(5-bromo-2,4-difluorophenyl)-N′-hydroxycarbamimidoyl]-1,2,5-oxadiazol-3-yl}sulfanyl)ethyl]acetamide]	154		290	136

Continued by falling IC50 (IDO1 [1]), values first:

IC50 (IDO1 [1]) [nM]	IC50 (IDO1 [2]; IDO1 Enzyme Assay, IC50, nM) [nM]	IC50 (IDO1 [3]) [nM]	IC50 (IDO1 [2]; [4]) [nM]	SMILES
195		231	84	N/C(=C\[N+](=O)[O-])NCCSc1nonc1C(=NO)Nc1ccc(F)c(Br)c1 [Example 99, 4-[(2-{[(E)-1-amino-2-nitroethenyl]amino}ethyl)sulfanyl]-N-(3-bromo-4-fluorophenyl)-N′-hydroxy-1,2,5-oxadiazole-3-carboximidamide]
169		149	110	CCOC(=O)NC(=O)NCCSc1nonc1C(=NO)Nc1ccc(F)c(Br)c1 [Example 128, ethyl {[2-({4-[N-(3-bromo-4-fluorophenyl)-N′-hydroxycarbamimidoyl]-1,2,5-oxadiazol-3-yl}sulfanyl)ethyl]carbamoyl} carbamate]
114	58.8	46.9		ON=C(Nc1ccc(F)c(Br)c1)c1nonc1SCc1ncon1 [Example 156, N-(3-bromo-4-fluorophenyl)-N′-hydroxy-4-[(1,2,4-oxadiazol-3-ylmethyl)sulfanyl]-1,2,5-oxadiazole-3-carboximidamide]
92.6		52.9	57.5	O/N=C(\Nc1ccc(F)c(Br)c1)c1nonc1SCCN1CCOCC1 [Example 126, N-(3-bromo-4-fluorophenyl)-N′-hydroxy-4-[(2-morpholin-4-ylethyl)sulfanyl]-1,2,5-oxadiazole-3-carboximidamide]
77.5		216	48.1	NCCSc1nonc1/C(=N/O)Nc1ccc(F)c(Br)c1 [Example 2, (Z)-2-((4-(N-(3-Bromo-4-fluorophenyl)-N′-hydroxycarbamimidoyl)-1,2,5-oxadiazol-3-yl)thio)ethan-1-aminium chloride]
70		133	99.7	CC(=O)N1CCC(Sc2nonc2/C(=N/O)Nc2ccc(F)c(Br)c2)CC1 [Example 87, 4-[(1-acetylpiperidin-4-yl)sulfanyl]-N-(3-bromo-4-fluorophenyl)-N′-hydroxy-1,2,5-oxadiazole-3-carboximidamide]
52.6		74.5	59.4	CCc1cccc(N/C(=N\O)c2nonc2SCCNC(C)=O)c1 [Example 65, N-[2-({4-[N-(3-ethylphenyl)-N′-hydroxycarbamimidoyl]-1,2,5-oxadiazol-3-yl}sulfanyl)ethyl]acetamide]
48.3		43.1	30.1	O=C(CCSc1nonc1/C(=N/O)Nc1ccc(F)c(Br)c1)NCCO [Example 107, 3-({4-[N-(3-bromo-4-fluorophenyl)-N′-hydroxycarbamimidoyl]-1,2,5-oxadiazol-3-yl}sulfanyl)-N-(2-hydroxyethyl)propanamide]
9.3		22.2	27.7	CC(=O)NCCSc1nonc1/C(=N/O)Nc1ccc(F)c(Br)c1 [Example 11, (Z)—N-(2-((4-(N-(3-Bromo-4-fluorophenyl)-N′-hydroxycarbamimidoyl)-1,2,5-oxadiazol-3-yl)thio)ethyl)acetamide]
